# Measurements: patent publication US20050071891A1, “Repressible sterility of animals” (priority 1999, published 2005)
# Several values for one entry are separate records, joined by “and”; a condition that tells them apart may be missing. Equal values may be shown once.
# How the values were obtained:
# ZF4 cells = assay: Tet-off system in zebrafish cell culture, EGFP reporter; type: cell-based; conditions: doxycycline 0.2 μg/ml, 72 h, pTet-Off + pTRE-EGFP cells
# Text: The applicant first tested the functionality of the Tet-off system in zebrafish cell cultures. The cell culture was established using ZF4 cells as previously described (Driever and Rangini, 1993). Cells were transfected with the DNAs using Effectene liposomes (Qiagen) according to the manufacturer's instructions. Cells were initially transfected with pTet-Off and placed under neomycin selection for 1 month. Neomycin-resistant cells were then transfected with pTRE-EGFP, and the selection plasmid pTK-Hyg, and placed under hygromycin selection for two weeks. EGFP expression was determined by examining and counting cells with obvious fluorescence and by examination of cell lysates using a fluorometer. Cells were grown in medium with or without doxycycline (0.2 μg/ml) for 72 h prior to assessment of gene expression, or were rinsed of doxycycline and assessed for reporter gene expression 72 h after removal of doxycycline.
# P19-pSFM 7 cells [1] = assay: Luciferase activity of pSFM 25 in P19 clones stably integrated with pSFM 7; type: cell-based, mouse; conditions: doxycycline at 1 μg/ml, clone 46
# Experimental: Stably integrated P19 clones were obtained by using BioRad Gene Pulser II electroporation system. 30 μg DNA electroporated into 10 million cells under following conditions 960 μF and 0.16 kV in a 0.4 cm cuvette (0.4 kV/cm). The next day normal media were replaced with appropriate selection media (300 μg/ml G418).
# Selection of a P19 cell line stably integrated with a goosecoid-dependent TET-OFF transactivator P19 cells were electroporated with pSFM 7 (Goosecoid promoter-TET/OFF) linearised with ApaLI and selected for stable integration.
# Table 20 showes the luciferase activities of pSFM 25 (TRE luciferase+) shown in counts per second (cps) of transiently transfected in P19-pSFM 7 cells.
# Addition of doxycycline at 1 μg/ml reduced luciferase activity from pSFM 25 in this clone by 90 fold. This clone, containing stably integrated pSFM 7 was therefore designated P19-pSFM 7 and used for further testing.
# P19-pSFM 7 cells [2] = assay: Expression patterns of reporter constructs in P19-pSFM 7 cells; type: cell-based, mouse; conditions: transfected into P19-pSFM 7 cells
# Experimental: Fluorescent and transmitted light images were acquired using a CCD camera with a microscope. […] The luminescence assays were conducted by using a dark 96 well plate was done by Victor2 from Wallac or by Topcount NXT from Can berra Packard.
# The first stage for testing blocker constructs is to set up an appropriate cell system to detect expression of reporter constructs. Initially, either pdsRED-N1 (CMV promoter RFP), pSFM 6 (CMV promoter goosecoid cDNA fused to RFP) or pSFM 24 (TRE EGFP) were transfected into P19-pSFM 7 cells to test the expression patterns of the EGFP, RFP and goosecoid-fused to RFP proteins (FIG. 37). […] In these cases, RFP expression fused to goosecid in the nucleus is expected to be inhibited in the presence of an appropriate blocker.
# zBMP2 = assay: Injection of zBMP2 antisense and double stranded DNA constructs into zebrafish embryos; type: in vivo; conditions: 100 μg/ml, 1-4 cell stage embryos
# Experimental: All the DNA preparations were appropriately linearized and gel purified (Qiaquick Gel Extraction Kit) before injection. Needles were made from borosilicate glass capillaries with filaments (GC100TF-15, Clark Electromedical instruments) using a P-80PC micropipette puller (Sutter Instrument Co.). The needle was back-filled with purified DNA diluted to 100 ng/μl in 1× injection buffer (10×; 50 mM Tris; 5 mM EDTA; 1M KCl, pH7.2) using a hand pulled pipette. Injections were carried out on a dissection microscope fitted with two, 3-dimensional Narshige MN-151 micromanipulators. Embryos were held in place during injection by a hydraulically (mineral oil) driven holding pipette. Injection of DNA solution was facilitated pneumatically using a 3-way foot operated plunge valve (Festo Engineering), connected between the injection needle holder and nitrogen tank. Injection was performed on one-cell stage embryos, unless specifically indicated otherwise. Injected embryos were incubated and reared as described above.
# On confirming the ability of in vitro transcribed BMP2 antisense and double stranded transcripts to disrupt larval development, DNA constructs capable of expressing the antisense and double stranded transcripts in vivo were developed and tested. […]
molecule,measurement,setting,value
"C[C@H]1c2cccc(O)c2C(=O)C2=C(O)[C@]3(O)C(=O)C(C(N)=O)=C(O)[C@@H](N(C)C)[C@@H]3[C@@H](O)[C@@H]21 [doxycycline, reference compound]",EGFP gene expression relative to cells not exposed to doxycycline,ZF4 cells,approximately 3%
same,reduction of luciferase activity from pSFM 25,P19-pSFM 7 cells [1],90 fold
pSFM 6: goosecoid cDNA fused to red fluorescent protein in pDSRed1-N1,cellular location of reporter expression,P19-pSFM 7 cells [2],detected in the nucleus
"pzBMP2-ds: zBMP2 promoter drives about 800 bp of zBMP2 cDNA designed to fold back as dsRNA (SEQ ID NO:13) (nucleic acid, Blocker Molecule) DNA: GAATTCATGAGGAACTTAGGAGACGACGGGAACGCAGACCGGCCACAGCGCTTCCTCCTCCGGAACTGACTGATCATGGTCGCCGTGGTCCGCGCTCTCACGGTGCTGTTGCTCGGTCAGGTGTTGCTGGGAGGTGCCGTTGGACTCATTCCCGAGATCGACCGACGGAAATACAGTGATTCGGGGAGACACACACCGGAGCGAACTGATACAAACTTCCTGAACGAGTTTGAGCTACGCTTGCTCAATATGTTCGGATTGAAGCGAAAACCCACCCCAAGCAAATCGGCAGTGGTCCCTCAGTACATGCTGGACTTGTATTATATGCACTCTGAAAACGATGACCCGAACATTCGGCGCCCGAGGAGCACTATGGGAAAACATGTAGAAAGGGCAGCCAGCAGAGCAAACACGATACGAAGTTTTCATCACGAAGAGGCTTTCGAGGCACTGTCCAGCCTGAAAGGAAAAACAACGCAGCAGTTTTTCTTCAACCTTACCTCCATTCCTGTCGACTGCCGATTTGCTTGGGGTGGGTTTTCGCTTCAATCCGAACATATTGAGCAAGCGTAGCTCAAACTCGTTCAGGAAGTTTGTATCAGTTCGCTCCGGTGTGTGTCTCCCCGAATCACTGTATTTCCGTCGGTCGATCTCGGGAATGAGTCCAACGGCACCTCCCAGCAACACCTGACCGAGCAACAGCACCGTGAGAGCGCGGACCACGGCGACCATGATCAGTCAGTTCCGGAGGAGGAAGCGCTGTGGCCGGTCTGCGTTCCCGTCGTCTCCTAAGTTCCTCATCTGCAGCAATTGGATATCAAGCTTATCGATGATGATCCAGACATGATAAGATACATTGATGAGTTTGGACAAACCNCANCTAGAATGCAGTGAAAAAAATGCTTTATTTGTGAAATTTGTGATGCTATTGCTTTATTTGTAACCATTATAAGCTGCAATAAACAAGTTAACNACAACAATTGCATTCATTTTATGTTTCAGGTTCAGNGGGAGGTGTGGGAGGTTTTTTAAAGCAAGTAAAACCTCTNCAAATGTGGTATGGCTGATTATGATCCTCTAGATCAGATCCACTAGTTCTAGAGCGGCCGCCACCGCGGTGGAGCTC",Number Deformed,zBMP2,21 and 22
same,"mortality, percentage",zBMP2,14.3% and 16.5%
